Experimental data taken from US20260306502A1, “MITOCHONDRIAL UNCOUPLERS FOR TREATMENT OF METABOLIC DISEASES AND CANCER” (Mito Biopharma, LLC, priority 2022, published 2026).
Entries after “also recorded” stand apart in the source; their conditions may differ.

Experiments:
[1] = test system: cultured mammalian cells, the NIH-3T3 cells, C2C12 cells, and other mammalian cell lines; assay: Mitochondrial membrane potential (MMP) assay, TMRE (or DilC1(5)) staining, related to OCR induction; format: cell-based; settings: in words; TMRE and DilC1(5) staining
Method in brief: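 NIH-3T3, C2C12 and other mammalian cells in log phase treated with compound at various concentrations for 2 h, stained with 100 nM TMRE for 15 min, imaged by fluorescence microscopy; alternatively 50 nM DilC1(5), 15–30 min at 37 °C, far-red read. C10% TMRE = concentration leaving 10% MMP.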

[2] = test system: HFD-induced diabetic mouse model and db/db mouse model; assay: Efficacy in HFD-induced diabetic and db/db mouse models; format: in vivo; settings: for reducing blood glucose, blood insulin, and glycated HbA1c: 5 mg/kg once daily PO, db/db and HFD mice; for minimal effective dose: Mus musculus, both HFD and db/db models, oral daily gavage, read-out: Efficacious dosage to reduce blood glucose in mouse models, oral daily gavage
Experimental: For HFD induced diabetic mouse model, C57Bl6 mice (male, n=6) were induced to obese and diabetic conditions by feeding high-fat diet (HFD, 60% fat calories, Research Diet, Inc. New Brunswick, NJ) for 3-4 months. […] During the 3-week period, the mice continued feeding HFD. […] The blood glucose levels were measured after an overnight fast, plasma insulin levels were tested after 5-6 hours fast, and the glycated HbA1c levels were determined in whole blood samples.
Experiments were similarly performed with other compounds, in either high-fat diet induced diabetes and fatty liver models, or in db/db mouse model, or in both, by daily oral gavage administration with low dosages.

NIH3T3 = assay: Cell growth inhibition assay (SRB), NIH3T3; format: cell-based; settings: Mus musculus, NIH3T3, 48 h
Experimental: Cell growth inhibition assays were performed using a protocol standardized by National Cancer Institute (NCI) for evaluating anti-cancer drugs. Various mammalian cell lines were used for the assays. Briefly, the cells were inoculated into 96 well microtiter plates. After cell inoculation, the microtiter plates were incubated for cell growth for 24 h prior to the addition of compounds. After 24 h, two plates of each cell line were fixed in situ with TCA, to represent a measurement of the cell population for each cell line at the time of compound addition (Tz). Test compounds were solubilized in dimethyl sulfoxide. At the time of test compound addition, five 10-fold or ½ log serial dilutions were made to provide a total of five test compound concentrations plus control. Aliquots of 100 μl of these different test compound dilutions were added to the appropriate microtiter wells already containing 100 μl of the medium, resulting in the required final test compound concentrations. […] The bound stain was subsequently solubilized with 10 mM trizma base, and the absorbance was read on an automated plate reader at a wavelength of 515 nm. Using the seven absorbance measurements [time zero, (Tz), control growth, (C), and test growth in the presence of a compound at the five concentration levels (Ti)], the percentage growth was calculated at each of the test compound concentrations levels.

TGF-β signaling pathway = TGF-β signaling pathway activation (Smad2/3 phosphorylation) in T cells (Jurkat, primary mouse CD8+), immunoblotting; format: cell-based, human Jurkat cells and mouse primary T-cells; settings: Jurkat and mouse primary T-cells, 6 hours, FIG. 19
Experimental: Jurkat cells (a human T-cell cancer cell line) and the primary mouse CD8+ cells (T-cells) were tested. The cells were treated with TGF-β (10 ng/ml) alone, or TGF-β (10 ng/ml) plus compound at various concentrations (e.g. 0.5, 1.0, 2.0 μM), or treated with vehicle (control), for 6 hours. The cells were then harvested, and cell lysates were subjected to immunoblotting analyses with antibodies against Smad2/3, phosphorylated Smad2/3, and GAPDH.

MC38 cells = assay: Anti-cancer effect in combination with a PD-1 inhibitor, MC38 cells transplanted in liver; format: in vivo, mouse; settings: in words
Description: FIG. 20A is the experimental design (see Example B12). Briefly, C57/Bl6 mice intrahepatically transplanted with MC38 cancer cells (day 0) were subject to various treatments starting on day 7: aPD-1 or isotype, mice were either treated with PD-1 antibody or its isotype antibody (control) by intraperitoneal (IP) injection on indicated days (PD-1 antibody has a half-life of over 1 week in mice); #64 or vehicle, mice were either treated with Compound #64 or vehicle by daily gavage. FIG. 20B is a table depicting outcomes of the experiments described in FIG. 20A and Example B12. aPD-1+#64 represents mice treated with PD-1 antibody (IP) and #64 (daily gavage); aPD-1 represents mice treated with PD-1 antibody (IP) and vehicle (gavage); control, represents mice treated with isotype antibody (IP) and vehicle (gavage); n is number of mice in each group. Tumor-positive is the number of tumor-bearing mice in each group; tumor-free is the number of tumor-free mice in each group; tumor-free % is the percentage of tumor-free animals in each group. […]
The experimental design is illustrated in FIG. 20A. Mouse colon cancer cells, MC38, were transplanted in livers of immune competent B57/Bl6 mice, and the effect of the combinatory treatment was determined. […] Tumor incidence and volume were determined.

SMILES | effect on mitochondrial membrane potential (MMP) [1] | reducing blood glucose, blood insulin, and glycated HbA1c [2] | minimal effective dose [2] [mg/kg] | GI50 (NIH3T3) [µM] | effect on TGF-β signaling pathway activation in T cells (TGF-β signaling pathway) | efficacy in combinatory therapy with PD-1 antibody in treating metastatic cancer in mice (MC38 cells)
COCCN(CCOC)Cc1cc(Cl)cc(C(=O)Nc2nc3ccc(C(F)(F)F)cc3s2)c1O [Compound 25, 3-((bis(2-methoxyethyl)amino)methyl)-5-chloro-2-hydroxy-N-(6-(trifluoromethyl)benzo[d]thiazol-2-yl)benzamide] | does not cause observable MMP reduction; also recorded: does not appear to reduce MMP over a wide concentration range; also recorded: without reducing MMP | highly efficacious | 2.5 | > 20 |  | 
COCCOCc1cc(C(F)(F)F)cc2sc(NC(=O)c3cc(Cl)cc(CN4C[C@@H](C)O[C@@H](C)C4)c3O)nc12 [Compound 64, 5-chloro-3-((cis-2,6-dimethylmorpholino)methyl)-2-hydroxy-N-(4-((2-methoxyethoxy)methyl)-6-(trifluoromethyl)benzo[d]thiazol-2-yl)benzamide] | minor loss of MMP; also recorded: without significantly decreasing MMP over a wide concentration range; also recorded: without drastically dissipating mitochondrial membrane potential | highly efficacious | 1 to 2.5 |  | effectively blocks TGF-β signaling pathway activation in T cells | efficacious in combinatory therapy with PD-1 antibody
